# Measurements as given in patent US7201899B2, “Materials and methods for management of hyperacute rejection in human xenotransplantation” (BresaGen Limited, priority 1994, dated 2007).
# Entries after “also recorded” stand apart in the source; their conditions may differ.
# What was measured:
# [1] = system: pig kidney, heart and liver sections; test: Immunostaining of pig tissues with anti-GAL antibodies; assay type: binding; conditions: pig renal cortex sections, proximal tubule brush borders; sugar 0.1 M
# Protocol: Pig kidney was fixed in formalin and dehydrated before embedding in Paraplast. Pig heart and liver were fixed in paraformaldehyde-lysine-periodate fixative and snap frozen in O.C.T. embedding compound (10.24% w/w polyvinyl alcohol, 4.26% w/w polyethylene glycol, 85.50% w/w nonreactive ingredients; Tissue Tek®, Miles, Inc., Elkhart, Ind., USA). Four μm-thick sections of pig heart and liver and 2 μm-thick sections of kidney were incubated with purified anti-GAL antibodies (undiluted, 1:2 and 1:4) for 60 min. and then incubated with a fluorescein isothiocyanate (FITC)-conjugated sheep anti-human immunoglobulin F(ab′) fragment. (Silenus Laboratories, Hawthorn, Australia) (1:100) for 30 min. or a peroxidase-conjugated rabbit anti-human IgG (Dakopatts, Glostrup, Denmark) (1:50) for 60 min. Control sections were analyzed for autofluorescence, with the secondary antibody alone, or with the anti-GAL-depleted IgG or normal pig serum as the primary antibody. […] The specificity of the anti-GAL antibodies was tested by pre-incubating sections of pig renal cortex with a variety of sugars, including melibiose, lactose, sucrose and glucose at 0.1 M.
# rat heart = test: Langendorf isolated perfused ex vivo heart model; conditions: sugar 10 mM, human plasma to 13%
# Protocol: A. Preparation and Storage of Human Plasma • 1. Centrifuge fresh human blood at 3000 rpm, 10 min., 4° C. to remove red blood cells (RBC's) • 2. Remove the plasma • 3. Centrifuge the plasma at 10,000 rpm, 10 min. 4° C. to remove any remaining cells; decant the plasma • 4. Add 2.5 ml of 0.1M EDTA pH 7.30 for every 50 ml of plasma • 5. Store 50 ml aliquots at −70° C. • 6. For heat-inactivated plasma, heat at 56° C. for 60 min., then centrifuge at 2,500 rpm for 10 min.
# Plasma prepared from different blood packs is thawed at 37° C., pooled and filtered (100 μm steel mesh, 8.0 μm and 4.5 μm Millipore filters, sequentially). Cacl2 is added at 0.58 mg/ml plasma, and the plasma kept on ice until ready for perfusion.
# 1. Anesthetize rats with Nembutal (1 μl sodium pentobarbitone (60 mg/ml)/g body weight) and mice with ether.
# 2. Surgically expose the heart and inject heparin (Porcine Mucous, 10,000 U/ml) into the femoral vein (rats: 0.3 ml injected).
# 3. Remove heart and place in ice-cold Krebs-Henseleit buffer containing heparin (0.2 ml/50 ml buffer. • Krebs-Henseleit buffer: • 119 mM NaCl • 25 mM NaHCO3 • 4.6 mM KCl • 1.2 mM MgSO4.7H2O • 1.3 mM CaCl2.2H2O • 1.2 mM KH2PO4 • 11 mM glucose • 0.25% (v/v) BSA • Adjust to pH 7.4; store at 4° C.
# 4. Connect aorta to the canula of the Langendorf perfusion apparatus and tie firmly. The apparatus was assembled by the present inventors according to experimental requirements of the Langendorf heart model as described in Doring & Dehnerrt, The Isolated Perfused Heart According to Langendorf, Bionesstechnik-Verlag March GmbH, D7806, West Germany.
# 5. Perfuse with Krebs-Henseleit buffer (made fresh each day), which is gassed continuously with carbogen (95% O2, 5% CO2) at a pressure of 100 mmHg, at 37° C.
# 6. Attach a hook, connected to a transducer (Physiograph MK-111-S, Narco Bio-Systems) to the apex of the heart.
# 7. Perfuse heart for 20 min. with Krebs-Henseleit buffer to enable heart to stabilize (reservoir volume: 270 ml).
# 8. […]
SMILES,inhibition of anti-GAL antibody binding to pig tissue by sugar [1],cardiac function of rat heart perfused with human plasma plus sugar (rat heart),cardiac function of rat heart perfused with human plasma plus sugar (rat heart; listed as lactose)
"O=C[C@H](O)[C@@H](O)[C@H](O)[C@H](O)CO[C@H]1O[C@H](CO)[C@H](O)[C@H](O)[C@H]1O [Melibiose, 6-O-α-D-galactopyranosyl-D-glucose]",reduced to near background; also recorded: inhibited,the heart was able to maintain a strong beat; also recorded: prolongs heart survival and output,–
"OC[C@H]1O[C@@H](O[C@H]2[C@H](O)[C@@H](O)[C@@H](O)O[C@@H]2CO)[C@H](O)[C@@H](O)[C@H]1O [Lactose, 4-O-β-D.galactopyranosyl-α-D-glucose]",not inhibited,does-not prolong heart survival,the heart essentially stopped beating within minutes. The same result was obtained
